The test has as its system PT22AV. In words: Minimum inhibitory concentration of fungicides in NYDA agar. The conditions noted are these: resistance level of PT22AV to the fungicide.

Turning to `N#Cc1c[nH]cc1-c1cccc2c1OC(F)(F)O2` [Fludioxonil], the Resistance level entry was “Resistant”.

The values above are taken from patent publication US20240188569A1, “NEW YEAST STRAIN AND ITS USES FOR THE CONTROL OF PHYTOPATHOGENS” (AGROVENTURES LLC, priority 2021, published 2024).
